Measurements published in ChEMBL document CHEMBL5678818, “Discovery of potent SOS1 inhibitors that block RAS activation via disruption of the RAS-SOS1 interaction” (Proc Natl Acad Sci U S A, 2019).

Tests used:
[1] = molecular target: Tyrosine-protein kinase ABL1 (Homo sapiens) (UniProt P00519); test: Inhibition of nonphosphorylated ABL1 (unknown origin) assessed as residual activity at 100 nM by KINOMEscan analysis relative to control
[2] = molecular target: Cyclin-dependent kinase-like 1 (Homo sapiens) (UniProt Q00532); test: Inhibition of CDKL1 (unknown origin) assessed as residual activity at 100 nM by KINOMEscan analysis relative to control
[3] = test system: Epidermal growth factor receptor (Homo sapiens), P00533 [UNDEFINED MUTATION]; test: Inhibition of EGFR L747-S752del/P753S mutant (unknown origin) assessed as residual activity at 100 nM by KINOMEscan analysis relative to control
[4] = test system: Epidermal growth factor receptor (Homo sapiens), P00533 [L858R,T790M]; test: Inhibition of EGFR L858R/T790M mutant (unknown origin) assessed as residual activity at 100 nM by KINOMEscan analysis relative to control
[5] = molecular target: Ephrin type-A receptor 2 (Homo sapiens) (UniProt P29317); test: Inhibition of EPHA2 (unknown origin) assessed as residual activity at 100 nM by KINOMEscan analysis relative to control
[6] = molecular target: T1, Ephrin type-A receptor 3 (Homo sapiens) (UniProt P29320); test: Inhibition of EPHA3 (unknown origin) assessed as residual activity at 100 nM by KINOMEscan analysis relative to control
T1 sequence (whole entry): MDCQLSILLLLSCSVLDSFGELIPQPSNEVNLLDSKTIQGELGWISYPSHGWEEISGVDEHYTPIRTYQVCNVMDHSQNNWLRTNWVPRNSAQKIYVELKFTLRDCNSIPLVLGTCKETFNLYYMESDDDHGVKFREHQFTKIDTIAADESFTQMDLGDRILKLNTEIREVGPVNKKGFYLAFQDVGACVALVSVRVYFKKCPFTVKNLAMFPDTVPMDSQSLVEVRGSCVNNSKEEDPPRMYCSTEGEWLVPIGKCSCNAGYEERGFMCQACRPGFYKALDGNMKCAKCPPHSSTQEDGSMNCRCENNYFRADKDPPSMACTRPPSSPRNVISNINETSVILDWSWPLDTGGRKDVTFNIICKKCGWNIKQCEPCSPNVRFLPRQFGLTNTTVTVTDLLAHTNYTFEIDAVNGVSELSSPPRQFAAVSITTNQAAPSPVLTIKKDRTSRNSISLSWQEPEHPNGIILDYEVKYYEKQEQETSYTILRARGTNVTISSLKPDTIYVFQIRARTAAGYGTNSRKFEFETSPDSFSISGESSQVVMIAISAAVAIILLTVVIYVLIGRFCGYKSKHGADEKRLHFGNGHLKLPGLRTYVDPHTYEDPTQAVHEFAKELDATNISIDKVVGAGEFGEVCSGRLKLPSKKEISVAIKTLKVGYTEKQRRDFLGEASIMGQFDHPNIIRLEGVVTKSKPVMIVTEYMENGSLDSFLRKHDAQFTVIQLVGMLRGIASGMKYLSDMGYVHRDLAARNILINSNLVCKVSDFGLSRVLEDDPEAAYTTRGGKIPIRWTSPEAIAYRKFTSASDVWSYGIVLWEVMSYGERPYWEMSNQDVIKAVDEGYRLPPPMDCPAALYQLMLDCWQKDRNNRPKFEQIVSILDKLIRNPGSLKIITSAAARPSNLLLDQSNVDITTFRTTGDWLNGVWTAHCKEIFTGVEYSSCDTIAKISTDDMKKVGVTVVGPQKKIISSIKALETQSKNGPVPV

[7] = molecular target: T2, MAP/microtubule affinity-regulating kinase 4 (Homo sapiens) (UniProt Q96L34); test: Inhibition of MARK4 (unknown origin) assessed as residual activity at 100 nM by KINOMEscan analysis relative to control
T2 sequence (whole entry): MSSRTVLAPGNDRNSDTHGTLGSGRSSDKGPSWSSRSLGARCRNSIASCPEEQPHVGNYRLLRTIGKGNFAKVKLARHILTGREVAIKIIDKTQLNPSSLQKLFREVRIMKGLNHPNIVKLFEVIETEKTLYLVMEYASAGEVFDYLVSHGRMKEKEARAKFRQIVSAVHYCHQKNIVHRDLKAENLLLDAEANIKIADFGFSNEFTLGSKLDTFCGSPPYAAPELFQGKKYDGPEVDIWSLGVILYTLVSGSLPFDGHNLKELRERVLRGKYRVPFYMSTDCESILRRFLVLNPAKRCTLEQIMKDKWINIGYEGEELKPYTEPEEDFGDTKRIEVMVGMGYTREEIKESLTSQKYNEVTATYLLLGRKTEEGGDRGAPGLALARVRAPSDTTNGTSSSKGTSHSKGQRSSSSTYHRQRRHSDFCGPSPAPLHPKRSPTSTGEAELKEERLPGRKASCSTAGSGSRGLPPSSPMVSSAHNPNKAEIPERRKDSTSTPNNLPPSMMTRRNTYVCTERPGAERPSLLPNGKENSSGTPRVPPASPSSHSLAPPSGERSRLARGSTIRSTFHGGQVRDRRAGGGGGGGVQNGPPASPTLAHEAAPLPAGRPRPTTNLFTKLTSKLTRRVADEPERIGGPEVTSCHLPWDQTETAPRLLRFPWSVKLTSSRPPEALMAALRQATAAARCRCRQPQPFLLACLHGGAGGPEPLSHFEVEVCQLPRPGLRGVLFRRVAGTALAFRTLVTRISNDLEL

Tyrosine-protein kinase ABL1 (Homo sapiens), sequence (P00519 whole entry): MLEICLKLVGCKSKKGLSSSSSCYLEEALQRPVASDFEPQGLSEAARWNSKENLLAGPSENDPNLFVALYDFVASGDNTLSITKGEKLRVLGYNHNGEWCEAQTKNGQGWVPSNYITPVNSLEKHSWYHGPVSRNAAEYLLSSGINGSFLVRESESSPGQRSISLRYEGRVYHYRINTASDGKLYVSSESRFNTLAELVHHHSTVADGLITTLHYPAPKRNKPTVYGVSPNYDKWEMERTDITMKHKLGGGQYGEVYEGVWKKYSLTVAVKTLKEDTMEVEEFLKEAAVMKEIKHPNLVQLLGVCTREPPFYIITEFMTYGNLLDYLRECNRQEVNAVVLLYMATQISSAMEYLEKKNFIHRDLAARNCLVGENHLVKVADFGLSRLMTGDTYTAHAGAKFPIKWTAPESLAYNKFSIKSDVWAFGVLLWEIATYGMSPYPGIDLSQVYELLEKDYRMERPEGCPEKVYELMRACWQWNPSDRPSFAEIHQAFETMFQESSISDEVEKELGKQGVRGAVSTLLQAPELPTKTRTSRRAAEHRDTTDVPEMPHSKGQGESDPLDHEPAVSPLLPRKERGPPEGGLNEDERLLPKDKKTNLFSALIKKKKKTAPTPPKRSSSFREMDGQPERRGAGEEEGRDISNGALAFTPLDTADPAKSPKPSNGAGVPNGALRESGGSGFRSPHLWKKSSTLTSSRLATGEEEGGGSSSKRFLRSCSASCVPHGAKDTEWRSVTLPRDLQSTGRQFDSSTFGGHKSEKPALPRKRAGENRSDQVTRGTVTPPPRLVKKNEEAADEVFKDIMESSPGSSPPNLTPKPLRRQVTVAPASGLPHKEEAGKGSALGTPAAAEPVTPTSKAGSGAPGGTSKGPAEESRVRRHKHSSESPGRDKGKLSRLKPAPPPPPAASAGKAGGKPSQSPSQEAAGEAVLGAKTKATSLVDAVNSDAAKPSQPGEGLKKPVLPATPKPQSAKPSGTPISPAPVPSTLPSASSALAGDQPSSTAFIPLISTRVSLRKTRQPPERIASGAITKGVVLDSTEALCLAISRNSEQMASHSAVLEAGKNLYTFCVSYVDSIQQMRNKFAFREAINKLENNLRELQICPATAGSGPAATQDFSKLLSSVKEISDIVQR
Ephrin type-A receptor 2 (Homo sapiens), sequence (P29317 whole entry): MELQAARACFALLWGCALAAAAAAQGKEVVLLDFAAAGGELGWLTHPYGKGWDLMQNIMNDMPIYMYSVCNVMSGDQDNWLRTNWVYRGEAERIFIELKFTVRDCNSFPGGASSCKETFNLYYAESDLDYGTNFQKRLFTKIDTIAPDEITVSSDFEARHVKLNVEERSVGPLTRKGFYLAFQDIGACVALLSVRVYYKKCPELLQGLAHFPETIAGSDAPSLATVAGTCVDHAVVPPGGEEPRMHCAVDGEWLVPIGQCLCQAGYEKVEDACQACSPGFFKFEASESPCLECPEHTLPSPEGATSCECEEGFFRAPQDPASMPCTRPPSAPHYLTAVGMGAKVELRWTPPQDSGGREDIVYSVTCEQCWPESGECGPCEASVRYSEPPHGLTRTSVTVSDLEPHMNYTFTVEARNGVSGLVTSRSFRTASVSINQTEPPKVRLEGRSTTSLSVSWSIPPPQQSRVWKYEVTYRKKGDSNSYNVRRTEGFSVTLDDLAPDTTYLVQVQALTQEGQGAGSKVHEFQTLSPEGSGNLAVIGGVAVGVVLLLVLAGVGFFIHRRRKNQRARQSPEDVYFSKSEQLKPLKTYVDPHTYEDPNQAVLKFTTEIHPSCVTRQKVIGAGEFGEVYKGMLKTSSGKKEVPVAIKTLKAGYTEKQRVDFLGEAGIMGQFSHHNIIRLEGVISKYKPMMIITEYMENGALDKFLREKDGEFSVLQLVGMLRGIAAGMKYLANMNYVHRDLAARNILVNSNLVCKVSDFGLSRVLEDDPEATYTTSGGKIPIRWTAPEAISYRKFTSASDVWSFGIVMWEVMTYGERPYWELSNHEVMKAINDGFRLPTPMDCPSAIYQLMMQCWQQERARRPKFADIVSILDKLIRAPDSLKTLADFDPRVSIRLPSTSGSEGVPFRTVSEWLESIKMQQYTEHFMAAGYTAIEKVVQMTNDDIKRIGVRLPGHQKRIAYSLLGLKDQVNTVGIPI
Cyclin-dependent kinase-like 1 (Homo sapiens), sequence (Q00532 whole entry): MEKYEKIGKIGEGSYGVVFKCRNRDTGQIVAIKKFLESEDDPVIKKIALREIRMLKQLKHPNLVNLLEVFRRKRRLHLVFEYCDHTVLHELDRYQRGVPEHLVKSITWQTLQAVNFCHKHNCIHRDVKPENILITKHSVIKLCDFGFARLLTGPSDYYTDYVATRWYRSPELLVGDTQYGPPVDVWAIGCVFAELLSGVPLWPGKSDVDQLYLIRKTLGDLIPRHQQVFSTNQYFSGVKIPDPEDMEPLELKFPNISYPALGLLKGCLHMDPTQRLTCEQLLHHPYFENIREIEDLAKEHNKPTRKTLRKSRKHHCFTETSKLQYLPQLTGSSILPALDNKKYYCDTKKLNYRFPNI

Question: For COc1cc2ncnc(N[C@H](C)c3cccc4ccccc34)c2cc1OC, which Activity [1] is on record?
Answer: 99%

Question: And the Activity [2]?
Answer: 70%

Question: And the Activity [3]?
Answer: 90%

Question: And the Activity [4]?
Answer: 85%

Question: What about the Activity [5] of the same molecule?
Answer: 82%

Question: And the Activity [6]?
Answer: 81%

Question: And the Activity [7]?
Answer: 97%
